In patent US20220048919A1, “HETEROARYLDIHYDROPYRIMIDINE DERIVATIVES AND METHODS OF TREATING HEPATITIS B INFECTIONS” (Janssen Phrmaceutica NV, priority 2018, published 2022):

Tests used:
[1] = Cytotoxicity determination in HepG2.2.15 cells (CCK-8 cell viability); assay type: cell-based; settings: human, 6 days of compound treatment, CCK-8 assay
Procedure: (§1) HepG2.2.15 (the HepG2.2.15 cell line can be produced by transfection of the HepG2 cell line as described in Sells, Chen, and Acs 1987 (Proc. Natl. Acad. Sci. USA 84:1005-1009), and the HepG2 cell line is available from ATCC® under number HB-8065™).
(§2) HepG2.2.15 cells were plated into 96-well plate in 2% FBS culture medium at the density of 40,000 cells/well and 5,000 cells/well for HBV inhibitory activity and cytotoxicity determination, respectively. After incubation at 37° C., 5% CO2 overnight, cells were treated with medium containing compounds for 6 days with medium and compounds refreshed after 3 days of treatment. Each compound was tested in a 1:3 serial dilutions at 8 different concentrations in triplicate. The highest concentration of the compounds was 10 uM or 1 uM for anti-HBV activity assay and 100 uM for cytotoxicity determination.
Cell viability was determined by CCK-8 assay. After 6 days of compounds treatment, 20 μl CCK-8 reagents were added to each well of cytotoxicity assay plates. Cell plates were incubated at 37° C., 5% CO2 for 2.5 h. The absorbance at 450 nm wavelength and the absorbance at 630 nm wavelength as reference was measured.
(§3) EC50 and CC50 values are calculated by the […] PRISM software.

HBV = experiment: Anti-HBV activity in HepG2.2.15 cells (HBV DNA in culture medium by qPCR); assay type: cell-based; settings: Hepatitis B virus, 144 h, 6 days of compound treatment
Procedure: as §1, §2
The change of HBV DNA level induced by the compounds was assessed by quantitative real-time polymerase chain reaction (qPCR). Briefly, the HBV DNA in the culture medium was extracted using QIAamp 96 DNA Blood Kit according to the manual and then quantified by real-time PCR assay using the primers and probe in the table 1 below.
as §3

| SMILES | CC50 at 6 days [1] [µM] | EC50 (HBV) [µM] |
| --- | --- | --- |
| CCOC(=O)C1=C(CN2CCN3C(=O)N([C@H]4CC[C@H](C(=O)O)CC4)C[C@]3(C)C2)NC(c2nccs2)=N[C@H]1c1cccc(F)c1C (relative stereo) [Compound 5A, (trans)-4-((S)-7-(((S*)-5-(Ethoxycarbonyl)-6-(3-fluoro-2-methylphenyl)-2-(thiazol-2-yl)-3,6-dihydropyrimidin-4-yl)methyl)-8a-methyl-3-oxohexahydroimidazo[1,5-a]pyrazin-2(3H)-yl)cyclohexanecarboxylic Acid] | 9.2 | 0.034 |
| CCOC(=O)C1=C(CN2CCN3C(=O)N(CC(C)(C)C(=O)O)CC3(C)C2)NC(c2nccs2)=N[C@H]1c1cccc(F)c1C (single isomer, unassigned) [Compound 1B] | 24.3 | 0.009 |
| COC(=O)C1=C(CN2CCN3C(=O)N(CC(C)(C)C(=O)O)C[C@]3(C)C2)NC(c2nccs2)=N[C@H]1c1ccc(F)cc1Br (relative stereo) [Compound 3A, 3-((S*)-7-(((R*)-6-(2-Bromo-4-fluorophenyl)-5-(methoxycarbonyl)-2-(thiazol-2-yl)-3,6-dihydropyrimidin-4-yl)methyl)-8a-methyl-3-oxohexahydroimidazo[1,5-a]pyrazin-2(3H)-yl)-2,2-dimethylpropanoic Acid] | 26.7 | 0.038 |
| CCOC(=O)C1=C(CN2CCN3C(=O)N(CC(C)(C)C(=O)O)C[C@]3(C)C2)NC(c2nccs2)=N[C@H]1c1cccc(F)c1Cl (single isomer, unassigned) [Compound 2A, (S*)-3-(-7-(((R*)-6-(2-Chloro-3-fluorophenyl)-5-(ethoxycarbonyl)-2-(thiazol-2-yl)-3,6-dihydropyrimidin-4-yl)methyl)-8a-methyl-3-oxohexahydroimidazo[1,5-a]pyrazin-2(3H)-yl)-2,2-dimethylpropanoic Acid] | 19.4 | 0.016 |
| CCOC(=O)C1=C(CN2CCN3C(=O)N(CC(C)(C)C(=O)O)CC3(CC)C2)NC(c2nccs2)=N[C@H]1c1cccc(F)c1C (single isomer, unassigned) [Compound 4B, 3-((S*)-7-(((S)-5-(Ethoxycarbonyl)-6-(3-fluoro-2-methylphenyl)-2-(thiazol-2-yl)-3,6-dihydropyrimidin-4-yl)methyl)-8a-ethyl-3-oxohexahydroimidazo[1,5-a]pyrazin-2(3H)-yl)-2,2-dimethylpropanoic Acid] | 18.5 | 0.165 |
| CCOC(=O)C1=C(CN2CCN3C(=S)N(CC(C)(C)C(=O)O)CC3(C)C2)NC(c2nccs2)=N[C@H]1c1cccc(F)c1C (single isomer, unassigned) [Compound 6A, 3-((R*)-7-(((S)-5-(Ethoxycarbonyl)-6-(3-fluoro-2-methylphenyl)-2-(thiazol-2-yl)-3,6-dihydropyrimidin-4-yl)methyl)-8a-methyl-3-thioxohexahydroimidazo[1,5-a]pyrazin-2(3H)-yl)-2,2-dimethylpropanoic Acid] | 13 | 0.012 |
